# Measured values from publication PMC12236907, “A Natural Depsipeptide Antibiotic that Targets the E site of the Bacterial Ribosome” (Research Square, 2025).
# Entries after “also recorded” stand apart in the source; their conditions may differ. Where a SMILES comes first, the peptide text is derived from it. Bridges are numbered along the chain shown (N, C = ends). [ ]: non-standard residue; d: D form. dOrn = NCCC[C@@H](N)C(=O)O
# What was measured:
# [1] = molecular target: rabbit reticulocyte lysate; assay: Inhibition of protein synthesis in rabbit reticulocyte lysate programmed with luciferase mRNA; format: biochemical
# mycobacteria = assay: Antimicrobial activity, mycobacteria; format: cell-based; conditions: Middlebrook 7H9 + 10% OADC + 0.05% Tween-80
# bacterial ribosome = assay: Toeprinting analysis of MKM-induced ribosome stalling; format: biochemical, E. coli
# Protocol: Toeprinting analysis was carried out in the E. coli in vitro transcription-translation system assembled from the purified components (PURExpress, NEB). Toeprinting was carried out using either ^32P-radiolabeled or fluorescently labeled reverse transcription primers, following the procedures described previously[21],[26],[27].
# Reactions either contained no antibiotic or were supplemented with 50 μM retapamulin or varying concentrations of MKM. The inhibitors of aminoacyl-tRNA synthetases (mupirocin, Gly-AMS (MedChemExpress: Cat. No.: HY-108940), or Arg-AMS (MedChemExpress, Cat. No.: HY-112862)) were added to the final concentrations of 50 μM to stall translation at downstream “catch codons” (Ile, Gly, or Arg, respectively). The gltX template was prepared by amplifying the gltX gene from E. coli BW25113 genomic DNA using the primers T7_gltX_F and gltX_NV1_R (Supplementary Table 6). The yrbA_wt template and its derivatives containing 3-Ser or 3-Thr codons were generated by four-primer PCRs using the primers T7_IR_AUG_F, yrbA_wt_F / yrbA_TTT_F / yrbA_SSS_F, yrbA_wt_R/yrbA_Ile_catch_R, and posT-NV1_R (Supplementary Table 6).
# Fluorescently labeled reactions were carried out on the ermBL toeprint mRNA template. The template was generated by PCR of two overlapping 77-nt- and 78-nt-long primers T7_ermBL_F and ermBL_UGA_R (Supplementary Table 6). Reactions were assembled in a 6 μl volume with 30 ng of the ermBL mRNA template and incubated for 15 min at 37 °C. Reverse transcription was carried out using AMV RT and primer NV*1-Alexa 647 (Supplementary Table 6) for 20 min at 37 °C. Reactions were terminated with 1 μl of 5 M NaOH, neutralized with 0.7 μl of 25% HCl, and nucleotide removal was performed with the QIAquick Nucleotide Removal Kit (Qiagen). The samples were dried under vacuum for 2 hours at 60 °C for subsequent gel electrophoresis. The 6% acrylamide gels were scanned on a Typhoon scanner (GE Healthcare). The sequences of all toeprinting templates used in the study can be found in Supplementary Table 7.
# [2] = tested on: E. coli S30 extract transcription-translation system; assay: Inhibition of protein synthesis in E. coli cell-free transcription-translation system; format: biochemical; conditions: E. coli S30 lysate, pBESTluc plasmid, 0.05 to 100 μM, 1 h at 37°C, luminescence; mean ±SD of three technical replicates
# Protocol: The impact of MKM-A and MKM-E on in vitro protein synthesis was evaluated using the E. coli S30 extract transcription-translation system (Promega) following the manufacturer’s protocol. The pBESTluc plasmid DNA was utilized as the template to produce firefly luciferase. MKM analogues were tested across a concentration range of 0.05 to 100 μM. The reactions were incubated for one hour at 37°C. Luminescence was then measured in opaque 96-well plates using a Synergy Microplate Reader (Biotek). The IC50 values, indicating the concentration at which MKMs inhibited protein synthesis by 50%, were determined using GraphPad Prism 10 software.
# ribosome = assay: Ribosome profiling (Ribo-seq)
# [3] = tested on: E. coli BW25113 ΔtolCΔbamB expressing ManE; assay: MIC in ManE-expressing E. coli; conditions: manE on pGDP3
# [4] = tested on: E. coli strain SQ110ΔtolC::pZsbmA; assay: Minimum inhibitory concentration, hypersusceptible E. coli SQ110ΔtolC::pZsbmA and its 23S rRNA mutants; conditions: 11 mutants: deletion of one adenine in A2432-A2435 (10) or of C249 (1) in 23S rRNA
structure (smiles),measurement,setting,value
"C[C@@H](O)[C@@H]1NC(=O)[C@@H](CCCNC(=N)N)NC(=O)[C@@H](CCCNC(=N)N)NC(=O)[C@@H](CC(N)=O)NC(=O)[C@@H](NC(=O)[C@@H](Cc2ccccc2)NC(=O)[C@@H](CCCN)NC(=O)[C@H](N)CCCNC(=N)N)[C@@H](C)OC(=O)[C@H](Cc2c[nH]cn2)NC1=O [MKM, manikomycin A] (H-[dR][dOrn][dF]T[dN][dR][dR]TH; ester 4-C)",IC50 ratio rabbit reticulocyte lysate / bacterial system,[1]; IC50 9.2 μM vs 0.6 μM in E. coli system,approximately 15 fold
same,inhibition of eukaryotic / mammalian translation (in words),[1]; rabbit reticulocyte lysate (Fig. 2d),poor inhibition; also recorded: very weak inhibitor
same,IC50,"[1]; rabbit reticulocyte lysate, luciferase mRNA",9.2 µM
same,IC50 ratio to cycloheximide,"[1]; rabbit reticulocyte lysate, higher than cycloheximide",35 fold
same,growth inhibition,mycobacteria,readily inhibits the growth
same,"ribosome stalling, ermBL mRNA","bacterial ribosome; E. coli in vitro protein synthesis system, ermBL template",ribosomes stall primarily on the third codon; also recorded: stalled the ribosome on the third codon
same,"ribosome stalling, gltX template","bacterial ribosome; gltX template, Gly-AMS in all reactions","arrested some ribosomes at the start codon, a notable fraction of them became arrested at several specific sites along the mRNA"
same,"ribosome stalling, yrbA-SSS template","bacterial ribosome; yrbA with three Ser codons after start codon, high concentrations of MKM",no ribosomes pass downstream of the start codon
same,"ribosome stalling, yrbA-TTT template",bacterial ribosome; yrbA with three Thr codons after start codon,a fraction of ribosomes was able to move through the Thr codons
same,IC50,[2],0.6 µM
same,metagene ribosome occupancy,"ribosome; E. coli BL21ΔtolC, 50 μg/ml (25×MIC), 2 min",increased ribosome occupancy at the early mRNA codons
same,codon depletion at MKM-induced arrest sites,"ribosome; E. coli BL21ΔtolC, 50 μg/ml (25×MIC), 2 min, pLogo",exclusion of Thr at the sites of MKM-induced arrest
same,codon enrichment at MKM-induced stalling sites,"ribosome; E. coli BL21ΔtolC, 50 μg/ml (25×MIC), 2 min, pLogo, sites with ≥5-fold higher occupancy",enrichment of Pro codons in the P and A sites
same,context specificity of action (summary),"ribosome; ribosome profiling and toeprinting, Pro, Leu, Thr codons",more efficiently inhibiting ribosomes translating Pro and Leu codons and exhibiting less effect on those translating Thr codons
same,increase in MIC on ManE expression,[3],> 32 fold
same,increase in MKM MIC,[4],> 16 fold
